Values quoted from earlier work as cited in patent US20240335422A1, “COMPOSITION AND METHODS OF TREATMENT USING TRANSDERMAL SUPPLEMENTATION” (Xygenyx Inc., priority 2023, published 2024).

Experiments:
skin [1] = conditions: single penetration enhancer
[2] = tested on: wide dynamic range neurons in the ventroposterolateral nucleus of the thalamus; conditions: in vivo
skin [3] = conditions: topical, concentrations 0.5-5%
skin [4] = conditions: topical, in combination with silymarin and tocopherols, test studies
[5] = not given; remark: listed apart in the source
[6] = compared to α-tocopherol taken as 1.0
[7] = even when dietary intake occurs in equal portions
[8] = in vivo

In the case of CC(C)[C@@H]1CC[C@@H](C)C[C@H]1O [Menthol], the “increase of transdermal drug uptake (factor)” value (skin [1]) is listed as ≥ 10.

For CCCCCc1cc(O)c2c(c1)OC(C)(C)C1CCC(C)=CC21 (stereo not drawn) [THC, Δ-9-tetrahydrocannabinol], the “analgesic power relative to morphine” value [2] is listed as “ten times more powerful than morphine”.

In the case of C=CCCCCCCCCC(=O)N[C@@H](Cc1ccccc1)C(=O)O [UP, Undecylenoyl phenylalanine], the “time of treatment to skin lightening effects” value (skin [3]) is given as ≥ 7 days.

In the case of NCCC(=O)N[C@@H](Cc1cnc[nH]1)C(=O)O [carnosine, Carnosine], the “reduction of age-related wrinkles” value (skin [4]) is listed as ≤ 27%.

For CC12CCC(CC1)C(C)(C)O2 [eucalyptol, 1,8-epoxy-p-menthane], the “increase of transdermal drug uptake (factor)” value (skin [1]) is given as “more than 10”.

For C/C(=C\CO)CCC[C@H](C)CCC[C@H](C)CCCC(C)C [phytol, Phytol], the solubility is given as “nearly insoluble in water, but soluble in most organic solvents”.

In the case of Cc1c(C)c2c(c(C)c1O)CC[C@@](C)(CCC[C@H](C)CCC[C@H](C)CCCC(C)C)O2 [α-tocopherol], the “reduction of risk of coronary disease” value ([5]; dietary supplementation, doses up to 400 IU/day) is listed as “up to 34%”, the “reduction of risk of developing neurodegenerative diseases (Alzheimer's Syndrome or dementia)” value ([5]; dietary supplementation, doses up to 400 IU/day, controlled trials) is listed as ≤ 24% and the “reduction in the development of age-related cataracts” value ([5]; in combination with 10-20 mg β-carotene and 400-500 mg vitamin C, doses around 400-500 IU) is listed as 23%. The “blood plasma concentration of F2-isoprostane” value ([5]; large doses of 1600-3200 IU/day) was “significantly lower”.

In the case of Cc1cc(O)c(C)c2c1O[C@](C)(CCC[C@H](C)CCC[C@H](C)CCCC(C)C)CC2 [β-tocopherol], the relative biological activity [6] is given as 0.5.

In the case of Cc1c(O)cc2c(c1C)O[C@](C)(CCC[C@H](C)CCC[C@H](C)CCCC(C)C)CC2 [γ-tocopherol], the “concentration in vivo relative to α-tocopherol” value [7] is listed as “roughly 10%” and the relative biological activity [6] is listed as 0.1.

For Cc1cc(O)cc2c1O[C@](C)(CCC[C@H](C)CCC[C@H](C)CCCC(C)C)CC2 [δ-tocopherol], the relative biological activity [6] is listed as 0.03.

For “HGH: hormone comprising a peptide chain synthesized in the pituitary gland”, the biological half-life [8] is given as 10-20 minutes.
